Measured values as given in the NIST ThermoML archive (doi:10.1016/j.fluid.2018.08.016).
Numbers after ± are expanded uncertainties.

What was measured:
[1] = for thermal conductivity: 101.33 kPa, Modified transient plane source method; for Normal melting temperature: Crystal 1, DTA; for Triple point temperature: DSC
[2] = Molar enthalpy of transition or fusion; conditions: DSC

CCCCCCCCCCCCCCCCCCCCCC [docosane]
thermal conductivity ([1]; 297.6 K, Crystal 2): 0.624 ± 0.039 W/m/K
thermal conductivity ([1]; 302.4 K, Crystal 2): 0.668 ± 0.041 W/m/K
thermal conductivity ([1]; 307.9 K, Crystal 2): 0.637 ± 0.04 W/m/K
thermal conductivity ([1]; 318.1 K, Liquid): 0.151 ± 0.005 W/m/K
thermal conductivity ([1]; 323 K, Liquid): 0.15 ± 0.005 W/m/K
thermal conductivity ([1]; 328.1 K, Liquid): 0.148 ± 0.005 W/m/K
thermal conductivity ([1]; 333 K, Liquid): 0.146 ± 0.005 W/m/K
thermal conductivity ([1]; 337.7 K, Liquid): 0.145 ± 0.005 W/m/K
thermal conductivity ([1]; 343 K, Liquid): 0.144 ± 0.005 W/m/K
thermal conductivity ([1]; 347.9 K, Liquid): 0.143 ± 0.005 W/m/K
thermal conductivity ([1]; 353 K, Liquid): 0.142 ± 0.005 W/m/K
Normal melting temperature [1]: 43.5 ± 0.5 °C
Triple point temperature ([1]; Crystal 2): 315.6 ± 0.8 K
Molar enthalpy of transition or fusion ([2]; Crystal 1): 41.5 ± 1.5 kJ/mol
Molar enthalpy of transition or fusion ([2]; Crystal 2): 28.9 ± 1.1 kJ/mol

CCCCCCCCCCCC [dodecane]
thermal conductivity ([1]; 318.2 K, Liquid): 0.135 ± 0.004 W/m/K
thermal conductivity ([1]; 323.2 K, Liquid): 0.134 ± 0.005 W/m/K
thermal conductivity ([1]; 328.1 K, Liquid): 0.133 ± 0.005 W/m/K
thermal conductivity ([1]; 333.1 K, Liquid): 0.131 ± 0.005 W/m/K
thermal conductivity ([1]; 337.7 K, Liquid): 0.13 ± 0.005 W/m/K
thermal conductivity ([1]; 343.2 K, Liquid): 0.128 ± 0.005 W/m/K
thermal conductivity ([1]; 347.9 K, Liquid): 0.127 ± 0.005 W/m/K
thermal conductivity ([1]; 352.8 K, Liquid): 0.127 ± 0.005 W/m/K

CCCCCCCCCCCCCCCCCCCCCCCCCCCCCCCC [dotriacontane]
thermal conductivity ([1]; 297.7 K, Crystal 2): 0.574 ± 0.034 W/m/K
thermal conductivity ([1]; 302.3 K, Crystal 2): 0.574 ± 0.036 W/m/K
thermal conductivity ([1]; 307.5 K, Crystal 2): 0.585 ± 0.036 W/m/K
thermal conductivity ([1]; 312.8 K, Crystal 2): 0.607 ± 0.038 W/m/K
thermal conductivity ([1]; 318 K, Crystal 2): 0.585 ± 0.037 W/m/K
thermal conductivity ([1]; 323.1 K, Crystal 2): 0.561 ± 0.035 W/m/K
thermal conductivity ([1]; 328 K, Crystal 2): 0.588 ± 0.036 W/m/K
thermal conductivity ([1]; 332.6 K, Crystal 2): 0.621 ± 0.038 W/m/K
thermal conductivity ([1]; 343 K, Liquid): 0.153 ± 0.006 W/m/K
thermal conductivity ([1]; 348 K, Liquid): 0.152 ± 0.006 W/m/K
thermal conductivity ([1]; 353.1 K, Liquid): 0.149 ± 0.005 W/m/K
Normal melting temperature [1]: 69 ± 0.5 °C
Triple point temperature ([1]; Crystal 2): 338.1 ± 0.8 K
Molar enthalpy of transition or fusion ([2]; Crystal 1): 75.5 ± 2.9 kJ/mol
Molar enthalpy of transition or fusion ([2]; Crystal 2): 38.9 ± 1.5 kJ/mol

CCCCCCCCCCCCCCCCCCCCCCCCCC [hexacosane]
thermal conductivity ([1]; 297.6 K, Crystal 2): 0.499 ± 0.031 W/m/K
thermal conductivity ([1]; 302.4 K, Crystal 2): 0.524 ± 0.031 W/m/K
thermal conductivity ([1]; 307.8 K, Crystal 2): 0.484 ± 0.032 W/m/K
thermal conductivity ([1]; 312.7 K, Crystal 2): 0.513 ± 0.032 W/m/K
thermal conductivity ([1]; 318.5 K, Crystal 2): 0.574 ± 0.036 W/m/K
thermal conductivity ([1]; 333 K, Liquid): 0.151 ± 0.005 W/m/K
thermal conductivity ([1]; 337.8 K, Liquid): 0.15 ± 0.005 W/m/K
thermal conductivity ([1]; 343.1 K, Liquid): 0.149 ± 0.006 W/m/K
thermal conductivity ([1]; 348 K, Liquid): 0.148 ± 0.005 W/m/K
thermal conductivity ([1]; 353.1 K, Liquid): 0.147 ± 0.005 W/m/K
Normal melting temperature [1]: 55.7 ± 0.5 °C
Triple point temperature ([1]; Crystal 2): 325.7 ± 0.8 K
Molar enthalpy of transition or fusion ([2]; Crystal 1): 55.3 ± 3.5 kJ/mol
Molar enthalpy of transition or fusion ([2]; Crystal 2): 30.8 ± 1.2 kJ/mol

CCCCCCCCCCCCCCCCCCCCCCCCCCCC [octacosane]
thermal conductivity ([1]; 297.7 K, Crystal 2): 0.514 ± 0.031 W/m/K
thermal conductivity ([1]; 302.4 K, Crystal 2): 0.489 ± 0.03 W/m/K
thermal conductivity ([1]; 308 K, Crystal 2): 0.471 ± 0.029 W/m/K
thermal conductivity ([1]; 312.7 K, Crystal 2): 0.469 ± 0.028 W/m/K
thermal conductivity ([1]; 318.6 K, Crystal 2): 0.473 ± 0.031 W/m/K
thermal conductivity ([1]; 323.4 K, Crystal 2): 0.505 ± 0.032 W/m/K
thermal conductivity ([1]; 337.7 K, Liquid): 0.152 ± 0.005 W/m/K
thermal conductivity ([1]; 343.1 K, Liquid): 0.151 ± 0.005 W/m/K
thermal conductivity ([1]; 348 K, Liquid): 0.149 ± 0.005 W/m/K
thermal conductivity ([1]; 353 K, Liquid): 0.149 ± 0.005 W/m/K
Normal melting temperature [1]: 60.2 ± 1 °C
Triple point temperature ([1]; Crystal 2): 330.4 ± 0.8 K
Molar enthalpy of transition or fusion ([2]; Crystal 1): 63.4 ± 2.3 kJ/mol
Molar enthalpy of transition or fusion ([2]; Crystal 2): 35.1 ± 1.3 kJ/mol

CCCCCCCCCCCCCCCCCCCCCCCC [tetracosane]
thermal conductivity ([1]; 297.6 K, Crystal 2): 0.594 ± 0.036 W/m/K
thermal conductivity ([1]; 302.3 K, Crystal 2): 0.545 ± 0.033 W/m/K
thermal conductivity ([1]; 307.7 K, Crystal 2): 0.545 ± 0.033 W/m/K
thermal conductivity ([1]; 312.9 K, Crystal 2): 0.603 ± 0.036 W/m/K
thermal conductivity ([1]; 323.1 K, Liquid): 0.152 ± 0.005 W/m/K
thermal conductivity ([1]; 328 K, Liquid): 0.151 ± 0.005 W/m/K
thermal conductivity ([1]; 333 K, Liquid): 0.149 ± 0.005 W/m/K
thermal conductivity ([1]; 337.6 K, Liquid): 0.148 ± 0.005 W/m/K
thermal conductivity ([1]; 343.1 K, Liquid): 0.146 ± 0.005 W/m/K
thermal conductivity ([1]; 348 K, Liquid): 0.146 ± 0.005 W/m/K
thermal conductivity ([1]; 353 K, Liquid): 0.145 ± 0.006 W/m/K
Normal melting temperature [1]: 50.0 ± 0.5 °C
Triple point temperature ([1]; Crystal 2): 320.8 ± 0.8 K
Molar enthalpy of transition or fusion ([2]; Crystal 1): 51 ± 5.3 kJ/mol
Molar enthalpy of transition or fusion ([2]; Crystal 2): 31 ± 1.8 kJ/mol

CCCCCCCCCCCCCCCCCCCCCCCCCCCCCC [triacontane]
thermal conductivity ([1]; 297.7 K, Crystal 2): 0.616 ± 0.038 W/m/K
thermal conductivity ([1]; 302.3 K, Crystal 2): 0.603 ± 0.036 W/m/K
thermal conductivity ([1]; 307.8 K, Crystal 2): 0.556 ± 0.034 W/m/K
thermal conductivity ([1]; 312.6 K, Crystal 2): 0.612 ± 0.037 W/m/K
thermal conductivity ([1]; 318.5 K, Crystal 2): 0.559 ± 0.035 W/m/K
thermal conductivity ([1]; 323.3 K, Crystal 2): 0.514 ± 0.033 W/m/K
thermal conductivity ([1]; 328 K, Crystal 2): 0.536 ± 0.034 W/m/K
thermal conductivity ([1]; 343.1 K, Liquid): 0.153 ± 0.005 W/m/K
thermal conductivity ([1]; 348 K, Liquid): 0.152 ± 0.005 W/m/K
thermal conductivity ([1]; 353.5 K, Liquid): 0.151 ± 0.005 W/m/K
Normal melting temperature [1]: 64.0 ± 1.5 °C
Triple point temperature ([1]; Crystal 2): 334.2 ± 0.8 K
Molar enthalpy of transition or fusion ([2]; Crystal 1): 69.9 ± 2.5 kJ/mol
Molar enthalpy of transition or fusion ([2]; Crystal 2): 37.8 ± 1.4 kJ/mol
